Laboratory results published in PMC10687260, “1,3-Diphenylureido hydroxamate as a promising scaffold for generation of potent antimalarial histone deacetylase inhibitors” (Scientific Reports, 2023).

What was measured:
[1] = biological target: T1, PfHDAC1 (Plasmodium falciparum, UniProt Q7K6A1); test: In vitro PfHDAC1 enzymatic assay; type: biochemical; conditions: for inhibition at 1 µM / inhibition at 10 µM: recombinant PfHDAC1
T1 construct: purchased BPS Bioscience (San Diego, CA)
T1 sequence (Q7K6A1 1-449): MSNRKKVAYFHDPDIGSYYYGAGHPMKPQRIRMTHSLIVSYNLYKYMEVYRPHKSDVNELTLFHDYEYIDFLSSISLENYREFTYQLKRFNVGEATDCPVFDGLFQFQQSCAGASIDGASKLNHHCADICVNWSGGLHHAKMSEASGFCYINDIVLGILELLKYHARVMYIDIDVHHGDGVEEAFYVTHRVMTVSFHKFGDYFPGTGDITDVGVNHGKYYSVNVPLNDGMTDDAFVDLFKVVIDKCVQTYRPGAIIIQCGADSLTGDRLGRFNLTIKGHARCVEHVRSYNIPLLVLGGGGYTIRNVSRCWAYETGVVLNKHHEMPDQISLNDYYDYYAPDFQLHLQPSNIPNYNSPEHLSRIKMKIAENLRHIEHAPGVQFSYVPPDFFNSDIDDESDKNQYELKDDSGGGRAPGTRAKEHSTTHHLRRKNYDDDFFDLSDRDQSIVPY
Procedure: In vitro PfHDAC1 enzymatic assay. PfHDAC inhibition assays were performed by BPS Bioscience (San Diego, CA). […] Then, each DMSO solution was directly diluted 10 × fold into the HDAC assay buffer for an intermediate dilution of 10% DMSO in HDAC assay buffer. Then, 5 µL of the intermediate dilution was added to a 50 µL reaction so that the final concentration of DMSO is 1% in all the reactions. […] Fluorescence intensity was measured at an excitation of 360 nm and an emission of 460 nm using a Tecan Infinite M1000 microplate reader. […] The fluorescent intensity data were analyzed using GraphPad Prism (v9.5.2). In the absence of the compound, the fluorescent intensity (Ft) in each data set was defined as 100% activity. In the absence of HDAC, the fluorescent intensity (Fb) in each data set was defined as 0% activity. The percent activity in the presence of each compound was calculated according to the following equation: % activity = (F-Fb)/(Ft-Fb), where “F” is the fluorescent intensity in the presence of the compound.

[2] = system: acetylated histone H4; test: Western blot of acetylated histone H4 in infected erythrocytes; type: cell-based, Plasmodium falciparum; conditions: 10 × IC50 for 4 h, trophozoites, vs DMSO
Procedure: (§1) Figure 5 Hydroxamic acid derivatives as potent in vitro PfHDAC1 inhibitors. […]. Enzyme activity was calculated by normalizing the data against the DMSO treated samples and discounting the background. Data are presented as shown above, with mean ± S.D. (n = 2). […]. Comparison of group/concentration against the DMSO control is represented as † for P < 0.0001. […]. Numbers on side of the bands represent the predicted mass (kDa) for each protein. (C,D) Band quantification of histone H3 (C) and H4 (D), respectively, normalizing their acetylated detection against their unmodified version. Differences to this value were analyzed by one way ANOVA using the Dunnett’s post correction, comparing each group against the DMSO control, as rank tests where P values are explicitly depicted.
(§2) Western Blot analysis. […]. Proteins were transferred to PVDF membranes, 5% non-fat dry milk in TBS with Tween 20 (0.1%) was used as blocking agent for 1 h at room temperature. After, incubated with the antibodies overnight at 4 °C (Acetyl Histone H3 Lys9 C5B11 Cell Signaling, Acetyl Histone H4 Lys16 E2B8W Cell Signaling, Histone H3 96C10 Cell Signaling and Histone H4 D2X4V Cell Signaling). For the analysis of protein acetylation levels, the membranes were stripped and re-probed with the corresponding anti-total protein. Mouse monoclonal anti-α-Tubulin (B512 Sigma-Aldrich) was used as loading control. Detection was performed by enhanced chemiluminescence using horseradish peroxidase-conjugated secondary antibodies (Vector Laboratories, Burlingame, CA, USA) and SuperSignal TM West Pico PLUS Chemiluminescent substrate kit (Thermo Scientific). Images were acquired using ChemiDoc TM Imaging System (BioRad Laboratories, CA, USA). Quantitative densitometry was carried out using ImageLab software (Bio-Rad Laboratories, CA, USA). The volume density of the chemiluminescent bands was calculated as an integrated optical density × mm^2 after background correction from each independent experiment (N = 3).

[3] = system: acetylated histone H3; test: Western blot of acetylated histone H3 in infected erythrocytes; type: cell-based, Plasmodium falciparum; conditions: 10 × IC50 for 4 h, trophozoites, vs DMSO
Procedure: as §1, §2

[4] = system: Namalwa; set-up: method as in PMID 33668008; conditions: Fig. 1A; cited from earlier work
[5] = system: Jurkat; set-up: method as in PMID 33668008; conditions: Fig. 1A; cited from earlier work
[6] = system: P. falciparum Dd2; test: Antiplasmodial SYBR Green I proliferation assay, P. falciparum Dd2; type: cell-based; conditions: Plasmodium falciparum, DD2; multidrug/CQ-resistant strain; read-out: IC50 P. falciparum Dd2
Description: Antiplasmodial activity against P. falciparum 3D7 (A, C and E) and P. falciparum Dd2 (B, D, F). […] Curves were plotted using non-linear regression based on means from three independent experiments measured in triplicate. Error bars indicate standard deviation, whose values are provided in the respective table.
Plasmodium falciparum culture and antiplasmodial activity. […] Development, parasitaemia, and morphology of parasites were monitored by light microscopy of thin blood smears stained according to the Romanowsky method (Panótico Rápido staining kit; Laborclin, Pinhais, Paraná, Brazil). […] Fresh 0^+ blood was generously provided by “Hospital Novo Atibaia” (Atibaia, SP, Brazil), and approved by the ethics committee at ICB-USP. The antiplasmodial effect of all compounds was validated against P. falciparum 3D7 strain conducting SYBR Green I (Invitrogen) drug assays as previously reported[30],[46] as a modification of the original procedure. […] Parasite proliferation was measured by the DNA load via fluorescence, using 100 μL of a lysis buffer with SYBR Green I (0.02% v/v) and incubated for 1 h at room temperature in the dark. […] Focal and gain adjustment was performed using the non-treated controls (highest expected fluorescence signal). Data was acquired via the CLARIOstar (V5.20) and MARS software, manually scaled to 0–100%, and plotted using GraphPad Prism (v9.5.2 for Windows, GraphPad Software, La Jolla California USA, www.graphpad.com). Non-treated parasites, the highest solvent concentration on parasites, CQ on parasites, and the highest drug concentration in the medium were used as controls for maximal growth, solvent control, positive biological control, and native drug fluorescence, respectively.

| SMILES | inhibition at 1 µM [1] [%] | remaining activity at 1 µM ([1]; 1 µM, read-out: PfHDAC1 residual activity) [%] | inhibition at 10 µM [1] [%] | Acetylated-H4 level (normalised to unmodified H4) [2] | Acetylated-H3 level (normalised to unmodified H3) [3] | IC50 [4] [nM] | IC50 [5] [nM] | IC50 [6] [nM] |
| --- | --- | --- | --- | --- | --- | --- | --- | --- |
| COc1ccc(NC(=O)Nc2ccc(/C=C/C(=O)NO)cc2)cc1 [Compound 6c, (E)-N-hydroxi-3-(4-(3-(4-methoxyphenyl)ureido)phenyl)acrylamide] | 69 | 26 | 82 | significant elevation |  |  |  |  |
| COc1ccc(NC(=O)Nc2ccc(CCC(=O)NO)cc2)cc1 [Compound 7c, N-hydroxy-3-(4-(3-(4-methoxyphenyl)ureido)phenyl)propanamide] | ~50 |  | 88 |  | two-fold increase |  |  |  |
| O=C(Nc1ccccc1)Nc1ccc(C(=O)NO)cc1 [Compound 8a, N-hydroxy-4-(3-phenylureido)bezamide] |  |  |  |  |  | 530 | 2500 |  |
| COc1ccc(NC(=O)Nc2ccc(C(=O)NO)cc2)cc1 [Compound 8c, N-hydroxy-4-(3–4(-methoxyphenyl)ureido)benzamide] | ~50 |  |  | significant elevation | two-fold increase |  |  | 800 |
